In data set [1] the test system is Pseudomonas aeruginosa. The class given is cell-based. From the text: Minimum Inhibitory Concentration (MIC) of a peptide of SEQ D NO: 4 (abbreviated PLP-3) and colistin against a collection of clinically relevant and commercially available bacterial strains was obtained via broth microdilution. The protocol for antimicrobial activity determination, detailed below, consisted in a modification of Clinical & Laboratory Standards Institute (CLSI) Guidelines.
MIC is the value defined as the lowest concentration of an antimicrobial, in these tests either PLP-3 or colistin, which inhibits the macroscopic growth of a bacterial strain after 18-22 h incubation at 37° C. The results from these assays are obtained via visual identification of the bacterial bottom at the end of the wells of the testing plate. Since the wells contain decreasing concentrations of the compounds, the final result is indicated as a concentration, MIC, expressed in μg/mL of the agent (in this case PLP-3 or colistin).
Bacterial strains were streaked in Columbia Agar plates (Columbia Agar with 5% Sheep Blood 90 mm Stacker plates, BD) and incubated overnight at 37° C. Polypropylene round bottomed 96-well plates were filled with 50 μL/well of Mueller-Hinton Broth (MHB, CM0405, 500 g, ThermoFisher Scientific™ Oxoid™) and 50 μL of either colistin or PLP-3 (at 4× the chosen initial concentration of the test) were added to the first well of each row of the plate followed by serial dilutions up until the 10th column of the plate.
Finally, strain inoculums were prepared by diluting 1:100 0.5 McFarland solutions in MHB. Plates were then inoculated with 50 μL of the inoculums and covered with film before 18 to 22 h incubation at 37 C.
Three biological and three technical replicates were performed per strain.
Broth microdilution testing of 15 strains of each species provided MIC50 and […] values (Table 4). Strains were either from clinical origin, relevant to current clinical situation, or commercially available strains belonging to the American Type Culture Collection (ATCC), namely: A. baumannii 17978 and 19606, K. pneumoniae 13883 and P. aeruginosa 27853.
This panel represents an example of relevant MDR, colistin resistant and colistin susceptible strains from which to compare results. The minimum inhibitory concentration (MIC) is the lowest concentration of a chemical, usually a drug, which prevents visible growth of a bacterium or bacteria. MIC50 represents the antimicrobial concentration value that inhibits the growth of 50% of the bacterial strains and […] of each species from the tested panel of strains. Being colistin both a peptide and a last-resource antibiotic, it was included in these assays for comparison against a commercially available antibiotic.
P. aeruginosa ATCC 27853 strain (commercially available from the American Type Collection Culture) was used as control by performing MICs to colistin and PLP-3 in all broth microdilution assays

Data set [2] concerns A. baumannii. The class given is cell-based. The conditions noted are these: for Folds: with vs w/o albumin. The procedure: (§1) To assess antimicrobial activity of PLP3 in a physiological relevant environment, MICs were performed at physiological human albumin concentrations. To this end, Mueller-Hinton broth (MHB) was supplemented with 40 mg/mL human albumin (A1653-5G, Merck) and broth microdilution protocol was used. SEQ ID NO: 4 (PLP-3) and colistin stocks were prepared both in MHB and albumin supplemented MHB. These were used for comparison of MICs in the presence or absence of albumin, and as a control.

The subject of data set [3] is P. aeruginosa. The class given is cell-based. The settings on record: for Folds: with vs w/o albumin. The method, then:
as §1

The nature of data set [4]: in vitro. Type of data set: cell-based, human. The conditions noted are these: human, haemolysis % relative to 1% TX-100 at 64 ug/mL PLP-3. The procedure: (§2) A 50% haematocrit solution (1:1 PBS 1×, P5493, 1 L, Sigma) was obtained from a commercially available human blood sample by performing 3 consecutive washes with PBS 1× and centrifuging at 2600 rpm for 10 minutes between washes. A final 4% erythrocyte solution was prepared with PBS 1× and chilled on ice until used.
(§3) Colistin and SEQ ID NO: 4 (PLP-3) stocks were prepared at 256 μg/mL in MHB and left at 4 C until used.
(§4) 96-well, round bottom plates were filled with 50 μL PBS 1× but for the haemolysis controls, which were left empty. 50 μL of each antimicrobial were added to the first column of each plate and serial dilution was performed. Then 50 μL of 4% erythrocyte solution were added to all wells of the plate and gently resuspended. Positive control consisted in PBS 1× and erythrocytes while haemolysis control was settled at 1% Triton™ X-100 (TX-100, 9002-93-1, 100 mL, Sigma) and erythrocytes.
(§5) Plates were incubated for 4 h at 37° C. and then centrifuged at 1500 rpm 5 min. […] An EPOCH™ spectrophotometer was used to read the plates at 450 nm.
(§6) Haemolysis assays of human erythrocytes were done using 1% TX-100 as a control for total haemolysis and absorbance values of PLP-3 were represented in relation to total haemolysis (TX-100 values).

Data set [5] relates to human erythrocytes. As to the kind of experiment: in vitro. Type of data set: cell-based. The settings on record: red cells of human. The method, then:
as §2, §3, §4, §5, §6

Where [6] appears, read: panel of 15 P. aeruginosa strains.

≈ marks a conversion by molar mass, not a printed value. Read-outs that look alike come from different tables or passages of the source.

A word on the MIC50: it is the lowest concentration that inhibits either 50% of growth or 50% of the strains tested, depending on the study. For orientation: MIC90 means an inhibitory concentration at the 90% level, which refers to growth in some studies and to a panel of isolates in others.

Compound `CC(C)C[C@@H]1NC(=O)[C@H](CCCNC(=N)N)NC(=O)[C@H](CCCNC(=N)N)NC(=O)[C@H](CCCNC(=N)N)NC(=O)[C@H]2CCCN2C(=O)[C@H](CCCNC(=N)N)NC(=O)[C@H](CCCNC(=N)N)NC(=O)[C@H](C(C)C)NC(=O)[C@@H]2CSSC[C@H](NC1=O)C(=O)N[C@@H](Cc1ccccc1)C(=O)N[C@@H](C(C)C)C(=O)N[C@@H](CCCNC(=N)N)C(=O)N1CCC[C@@H]1C(=O)N[C@@H](CCCCN)C(=O)N[C@@H](Cc1ccccc1)C(=O)N[C@@H](C(C)C)C(=O)N[C@@H](C(C)C)C(=O)N2` [PLP-3, cyclo[RRRLCFVRPKFVVCVRRP]] came in with an MIC range in data set [1] of 1 to 8 µg/mL. Besides, in data set [1] (setting [6]), the MIC50 turned out to be 4 µg/mL (≈ 1.76 µM) and the MIC90 is 8 µg/mL (≈ 3.53 µM). In data set [2] (strain ATCC 17978), the “MIC With Albumin 40 mg/mL” value is 4 µg/mL, the “MIC w/o Albumin” value came out at 1 µg/mL (≈ 0.441 µM) and the Folds was found to be 2. Further, in data set [2] (strain CR17), the “MIC With Albumin 40 mg/mL” value was 2 µg/mL, the “MIC w/o Albumin” value amounted to 1 µg/mL (≈ 0.441 µM) and the Folds was 1. Also, in data set [3] (strain ATCC 27853), the “MIC With Albumin 40 mg/mL” value came to 8 µg/mL, the “MIC w/o Albumin” value was 2 µg/mL (≈ 0.882 µM) and the Folds came to 2. In addition, in data set [3] (strain R2), the “MIC With Albumin 40 mg/mL” value is 32 µg/mL, the “MIC w/o Albumin” value amounted to 4 µg/mL (≈ 1.76 µM) and the Folds is 3. Moreover, in data set [4], the hemolysis at 4 h, 64 ug/mL turned out to be 62.6%. For the same compound, the “IC50 from the haemolysis curve” value in data set [5] is 48.53 µg/mL (≈ 21.4 µM).

The values above are taken from patent publication US20260242418A1, “CYCLIC PEPTIDES WITH ANTIBACTERIAL ACTIVITY AGAINST MULTIDRUG RESISTANT (MDR) PATHOGENS” (priority 2022, published 2026).
